Laboratory results: US7202268B2, “Derivatives of indole-3-carboxamide, preparation method thereof and application of same in therapeutics” (Sanofi-aventis, priority 2002, dated 2007)

melting point [°C]	SMILES
100 to 103	CCC(C)(C)NC(=O)c1cn(CCCSC)c2c(Cl)c(Cl)ccc12
170 to 173	CSCCCn1cc(C(=O)NCC(C)(C)C)c2ccc(Cl)c(Cl)c21
208 to 211	CC(C)(C)CNC(=O)c1cn(CCCS(C)(=O)=O)c2c(Cl)c(Cl)ccc12
